In PMC10820264, “Combining Experimental and Computational Methods to Produce Conjugates of Anticholinesterase and Antioxidant Pharmacophores with Linker Chemistries Affecting Biological Activities Related to Treatment of Alzheimer’s Disease” (Molecules, 2024):
Values joined by “and” are separate entries in the source; they are usually repeats but may differ in a detail not shown here. Equal entries are not always repeated. Marks after values point to notes of the source that are not given here.

Key:
[1] = ABTS radical cation scavenging assay; conditions: for ABTS•+-Scavenging Activity TEAC: Trolox equivalents; for time to reach the activity level of Trolox in ABTS radical scavenging: compound at 20 μM (IC50 of Trolox)
[2] = Ferric-reducing antioxidant power (FRAP) assay; conditions: Trolox equivalents
[3] = target: equine serum BChE (Equus caballus, UniProt P81908); experiment: biochemical; assay type: biochemical
Sequence of equine serum BChE (P81908 whole entry): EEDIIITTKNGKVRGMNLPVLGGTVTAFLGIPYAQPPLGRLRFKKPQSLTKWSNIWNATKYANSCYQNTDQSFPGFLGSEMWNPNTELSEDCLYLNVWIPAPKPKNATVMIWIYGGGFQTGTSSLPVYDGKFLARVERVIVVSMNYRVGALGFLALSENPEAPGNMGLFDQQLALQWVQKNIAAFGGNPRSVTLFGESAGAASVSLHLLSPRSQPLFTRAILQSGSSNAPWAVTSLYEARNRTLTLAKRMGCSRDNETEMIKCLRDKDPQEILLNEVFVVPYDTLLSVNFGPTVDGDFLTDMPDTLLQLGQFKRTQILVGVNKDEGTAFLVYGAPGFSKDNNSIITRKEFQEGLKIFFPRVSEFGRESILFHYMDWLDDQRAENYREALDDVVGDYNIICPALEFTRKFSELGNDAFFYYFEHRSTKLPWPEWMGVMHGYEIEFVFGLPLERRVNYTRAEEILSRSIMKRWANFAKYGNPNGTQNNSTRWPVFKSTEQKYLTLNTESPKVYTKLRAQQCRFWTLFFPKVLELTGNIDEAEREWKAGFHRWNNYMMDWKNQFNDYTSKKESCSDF
Experimental: (§1) Human erythrocyte AChE and equine serum BChE were purchased from Milamed (Perm, Russia). Porcine liver CES, substrates, and reference compounds were from Sigma-Aldrich (St. Louis, MO, USA). The activity of enzymes was measured spectrophotometrically, as described in detail in [72] using ATCh iodide, BTCh iodide, and 4-NPA as substrates for AChE, BChE, and CES, respectively. Experimental conditions: K,Na—phosphate buffer (100 mM), 25 °C, pH 7.5 for AChE and BChE and pH 8.0 for CES assay. Measurements were carried out on a FLUOStar Optima microplate reader (BMG Labtech, Ortenberg, Germany).
(§2) Test compounds were dissolved in DMSO; the final concentration of solvent in the incubation mixture was 2% (v/v).

[4] = target: Human erythrocyte AChE (Homo sapiens, UniProt P22303); experiment: biochemical; assay type: biochemical
Sequence of Human erythrocyte AChE (P22303 other isoform, or with tags, fused parts or gaps): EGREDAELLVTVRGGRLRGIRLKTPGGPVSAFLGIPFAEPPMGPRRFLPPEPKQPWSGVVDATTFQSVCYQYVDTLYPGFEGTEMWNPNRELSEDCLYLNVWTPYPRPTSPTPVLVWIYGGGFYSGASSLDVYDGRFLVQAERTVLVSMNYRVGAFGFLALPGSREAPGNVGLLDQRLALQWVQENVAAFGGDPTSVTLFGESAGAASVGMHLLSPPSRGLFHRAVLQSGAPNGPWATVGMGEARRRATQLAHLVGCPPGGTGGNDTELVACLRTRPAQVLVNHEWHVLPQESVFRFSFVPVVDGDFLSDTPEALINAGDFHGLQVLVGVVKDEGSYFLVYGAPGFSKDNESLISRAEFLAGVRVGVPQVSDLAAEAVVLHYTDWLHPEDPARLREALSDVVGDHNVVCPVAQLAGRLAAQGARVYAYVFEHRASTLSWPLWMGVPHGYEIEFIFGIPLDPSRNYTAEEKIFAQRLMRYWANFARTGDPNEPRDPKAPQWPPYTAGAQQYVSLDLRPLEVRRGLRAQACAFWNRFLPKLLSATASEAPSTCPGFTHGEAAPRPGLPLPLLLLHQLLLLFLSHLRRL
Experimental: as §1, §2

[5] = target: peripheral anionic site of Electrophorus electricus AChE (EeAChE) (Electrophorus electricus, UniProt O42275); assay type: binding;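 further: compounds tested at 20 µM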
Sequence of peripheral anionic site of Electrophorus electricus AChE (EeAChE) (O42275 24-633): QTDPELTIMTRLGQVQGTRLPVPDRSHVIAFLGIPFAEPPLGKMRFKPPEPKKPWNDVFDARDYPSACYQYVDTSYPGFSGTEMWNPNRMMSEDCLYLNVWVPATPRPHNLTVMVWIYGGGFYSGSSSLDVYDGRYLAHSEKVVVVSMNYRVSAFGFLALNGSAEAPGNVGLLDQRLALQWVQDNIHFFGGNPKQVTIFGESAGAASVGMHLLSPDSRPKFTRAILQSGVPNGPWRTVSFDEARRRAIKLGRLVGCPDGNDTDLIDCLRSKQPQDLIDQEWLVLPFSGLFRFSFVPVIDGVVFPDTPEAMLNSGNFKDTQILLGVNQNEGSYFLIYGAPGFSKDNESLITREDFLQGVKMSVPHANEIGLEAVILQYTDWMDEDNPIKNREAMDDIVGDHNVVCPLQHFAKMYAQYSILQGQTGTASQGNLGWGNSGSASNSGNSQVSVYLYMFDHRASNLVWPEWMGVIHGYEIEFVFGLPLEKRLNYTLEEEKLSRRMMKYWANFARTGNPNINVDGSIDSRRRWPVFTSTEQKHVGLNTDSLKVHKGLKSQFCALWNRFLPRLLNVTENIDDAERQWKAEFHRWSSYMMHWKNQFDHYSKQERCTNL

[6] = tested on: Porcine liver CES; experiment: CES inhibition, spectrophotometric, 4-NPA substrate; assay type: biochemical
Experimental: as §1
Test compounds were dissolved in DMSO; the final concentration of solvent in the incubation mixture was 2% (v/v). […]

Compound: CC(C)(C)c1cc(C=NCCCCNc2c3c(nc4ccccc24)CCC3)cc(C(C)(C)C)c1O [13b, 2,6-Di-tert-butyl-4-{[4-(2,3-dihydro-1H-cyclopenta[b]quinolin-9-ylamino)-butylimino]-methyl}-phenol]
- IC50 [1]: 25.4 ± 1.6 µM
- ABTS•+-Scavenging Activity TEAC [1]: 0.78 ± 0.04
- Ferric-Reducing Antioxidant Power TE [2]: 0.60 ± 0.02
- IC50 [3]: 0.351 ± 0.001 µM
- IC50 [4]: 1.3 ± 0.07 µM
- Propidium Displacement [5]: 20.0 ± 1.6 ***^,§ %
- CES % inhibition at 20 μM [6]: 32.7 ± 1.9%

Compound: CC(C)(C)c1cc(C=NCCCCCCNc2c3c(nc4ccccc24)CCC3)cc(C(C)(C)C)c1O [13c, 2,6-Di-tert-butyl-4-{[6-(2,3-dihydro-1H-cyclopenta[b]quinolin-9-ylamino)-hexylimino]-methyl}-phenol]
- IC50 [1]: 19.4 ± 0.9 µM
- ABTS•+-Scavenging Activity TEAC [1]: 0.98 ± 0.04
- Ferric-Reducing Antioxidant Power TE [2]: 0.59 ± 0.01
- IC50 [3]: 0.172 ± 0.017 µM
- IC50 [4]: 0.21 ± 0.01 µM
- Propidium Displacement [5]: 16.5 ± 1.3%
- CES % inhibition at 20 μM [6]: 31.3 ± 2.1%

Compound: CC(C)(C)c1cc(C=NCCCCNc2c3c(nc4ccccc24)CCCC3)cc(C(C)(C)C)c1O [14b, 2,6-Di-tert-butyl-4-{[4-(1,2,3,4-tetrahydro-acridin-9-ylamino)-butylimino]-methyl}-phenol]
- IC50 [1]: 19.7 ± 0.9 µM
- ABTS•+-Scavenging Activity TEAC [1]: 1.0 and 1.00 ± 0.05
- IC50 [3]: 0.385 ± 0.031 µM
- IC50 [4]: 0.424 ± 0.022 µM
- Propidium Displacement [5]: 17.6 ± 1.4 *^,§ %
- CES % inhibition at 20 μM [6]: 26.6 ± 2.2%

Compound: CC(C)(C)c1cc(C=NCCCCNc2c3c(nc4ccccc24)CCCCC3)cc(C(C)(C)C)c1O [15b, 2,6-Di-tert-butyl-4-{[4-(7,8,9,10-tetrahydro-6H-cyclohepta[b]quinolin-11-ylamino)-butylimino]-methyl}-phenol]
- IC50 [1]: 22.5 ± 1.4 µM
- ABTS•+-Scavenging Activity TEAC [1]: 0.89 ± 0.04
- Ferric-Reducing Antioxidant Power TE [2]: 0.46 ± 0.01
- IC50 [3]: 0.131 ± 0.004 µM
- IC50 [4]: 0.524 ± 0.02 µM
- Propidium Displacement [5]: 18.4 ± 1.4 **^,§ %
- CES % inhibition at 20 μM [6]: 26.3 ± 0.4%

Compound: CC(C)(C)c1cc(CNCCCCNc2c3c(nc4ccccc24)CCC3)cc(C(C)(C)C)c1O [16b, 2,6-Di-tert-butyl-4-{[4-(2,3-dihydro-1H-cyclopenta[b]quinolin-9-ylamino)-butylamino]-methyl}-phenol]
- IC50 [1]: 23.6 ± 1.3 µM
- ABTS•+-Scavenging Activity TEAC [1]: 0.90 ± 0.04
- Ferric-Reducing Antioxidant Power TE [2]: 0.44 ± 0.02
- IC50 [3]: 0.177 ± 0.017 µM
- IC50 [4]: 0.912 ± 0.016 µM
- Propidium Displacement [5]: 17.5 ± 1.5 *^,§ %
- CES % inhibition at 20 μM [6]: 17.2 ± 3.3%

Compound: CC(C)(C)c1cc(CNCCCCCCNc2c3c(nc4ccccc24)CCC3)cc(C(C)(C)C)c1O [16c, 2,6-Di-tert-butyl-4-{[6-(2,3-dihydro-1H-cyclopenta[b]quinolin-9-ylamino)-hexylamino]-methyl}-phenol]
- IC50 [1]: 13.4 ± 0.7 µM
- time to reach the activity level of Trolox in ABTS radical scavenging [1]: less than 1 min
- Ferric-Reducing Antioxidant Power TE [2]: 0.51 ± 0.02
- IC50 [3]: 0.0488 ± 0.0005 µM
- IC50 [4]: 0.205 ± 0.012 µM
- Propidium Displacement [5]: 15.8 ± 1.4%
- CES % inhibition at 20 μM [6]: 18.7 ± 0.7%

Compound: CC(C)(C)c1cc(CNCCCCNc2c3c(nc4ccccc24)CCCC3)cc(C(C)(C)C)c1O [17b, 2,6-Di-tert-butyl-4-{[4-(1,2,3,4-tetrahydro-acridin-9-ylamino)-butylamino]-methyl}-phenol]
- IC50 [1]: 14.3 ± 0.6 µM
- time to reach the activity level of Trolox in ABTS radical scavenging [1]: less than 1 min
- IC50 [3]: 0.111 ± 0.009 µM
- IC50 [4]: 0.279 ± 0.022 µM
- Propidium Displacement [5]: 15.4 ± 1.3%
- CES % inhibition at 20 μM [6]: 15.8 ± 1.4%

Compound: Cc1c(C)c2c(c(C)c1O)CCC(C)(C(=O)O)O2 (stereo not drawn) [Trolox, 6-hydroxy-2,5,7,8-tetramethylchroman-2-carboxylic acid, reference compound]
- IC50 [1]: 20 µM and 20.1 µM
- ABTS•+-Scavenging Activity TEAC [1]: 1.0
- Ferric-Reducing Antioxidant Power TE [2]: 1.0

Compound: bis-4-nitrophenyl phosphate [BNPP, reference compound]
- CES % inhibition at 20 μM [6]: 99.1 ± 0.9% ^b
